Measurements as given in patent publication US20190209501A1, “COMPOSITIONS AND METHODS OF USE OF BETA-HYDROXY-BETA-METHYLBUTYRATE (HMB) […] IN[…]” (Texas Tech University Office of Research Commercialization, priority 2018, published 2019).

How the values were obtained:
[1] = 1-repetition maximum and repetitions to failure, bench press and hip sled (leg press); assay type: in vivo, human; details: for 1RMBP (kg) Week 4 / 1RMBP (kg) Week 8: 1-repetition maximum bench press; for 1RMBP (kg) Week 4 / 1RMBP (kg) Week 8 / 1RMLP (kg) Week 8 / RTFBP (reps) Week 4 / RTFBP (reps) Week 8 / RTFLP (reps) Week 8: mean ± SE; for 1RMLP (kg) Week 8: 1-repetition maximum leg press; for 1RMBP Δ (%) / 1RMLP Δ (%) / RTFBP Δ (%) / RTFLP Δ (%): change baseline to week 8 relative to baseline; for RTFBP (reps) Week 4 / RTFBP (reps) Week 8: repetitions to failure bench press; for RTFBP (reps) Week 4 / RTFBP (reps) Week 8 / RTFLP (reps) Week 8: 70% of baseline 1-RM; for RTFLP (reps) Week 8: repetitions to failure leg press; for 1RMBP (kg) Δ / 1RMLP (kg) Δ / RTFBP (reps) Δ / RTFLP (reps) Δ: week 8 minus baseline
Source text: Assessments of muscular performance took place between 12:00 and 18:00 in the non-fasted state, and participants were instructed to follow their preferred food and fluid intake patterns prior to testing. The assessment began with a 5-minute warm up period using a self-selected pace on a stationary bicycle. This warm up period was followed by assessment of countermovement vertical jumps (CMVJ) performance, testing on a mechanized squat device, and muscular strength and endurance assessment on the bench press and hip sled exercises. At the 4-week assessment, the CMVJ and hip sled assessments were not performed.
Resistance exercise performance for the bench press and hip sled exercises was evaluated via the 1-repetition maximum (1RM) and repetitions to failure with 70% of the 1RM. The 1RM testing protocol was based on the recommendations of the National Strength and Conditioning Association (33). Briefly, after completing warm up sets, participants completed 2 to 3 repetitions using a load estimated to be near-maximal. 1RM attempts then commenced, with the goal of obtaining the 1RM in between 3 and 5 attempts. Three minutes of rest were allowed between attempts. The maximal weight lifted with proper form was recorded as the 1RM. After the 1RM was obtained, a 3-minute rest period was allowed before repetitions to failure (RTF) were completed using 70% of the 1RM. For all participants, the bench press was tested before the leg press in order to allow for recovery of the lower body following the mechanized squat testing.

[2] = Resting energy expenditure and substrate utilization (RQ) via indirect calorimetry; assay type: in vivo, human; details: for RMR Δ / RMR Δ (%) / RQ Δ / RQ Δ (%): baseline to W 8; for RMR ES (d) / RQ ES (d): effect size
Experimental: REE and substrate utilization were assessed via indirect calorimetry (TrueOne 2400. ParvoMedics, Sandy, Utah, USA). Gas and flow calibrations were performed each morning according to manufacturer specifications, and the pre-assessment procedures of Compher et al. (34) were utilized. Participants were instructed to remain motionless but awake during the assessment, which took place in a climate-controlled room with the lights dimmed. The first five minutes of each test were discarded, and the assessment continued until there was a period of 5 consecutive minutes with a coefficient of variation (CV) for REE of ≤5%. The average CV for REE in the present study was 3.2±1.1% (mean±SD).

[3] = Resistance training workout volume; assay type: in vivo, human; details: for LB Volume ES (d) / LS Session Volume ES (d) / UB Session Volume ES (d) / UB Volume ES (d): effect size; for LB Volume Δ / LB Volume Δ (%) / LS Session Volume Δ / LS Session Volume Δ (%) / UB Session Volume Δ / UB Session Volume Δ (%) / UB Volume Δ / UB Volume Δ (%): first to second 4 weeks
Source text: All groups completed 8 weeks of supervised RT in conjunction with the assigned dietary and supplementation programs. Training took place within the research laboratories under direct supervision. RT sessions were completed on 3 nonconsecutive days each week (i.e. Mondays, Wednesdays and Fridays), and upper- and lower-body sessions were alternated (Table 1).
Participants were instructed to train to momentary muscular exhaustion for each set, and the load was adjusted as necessary to ensure compliance with the specified repetition range. The weights and repetitions completed for each set of each exercise were recorded to allow for calculation of RT volume. Sessions took place between 12:00 and 18:00. […] Following each RT session, participants from each group were provided with 25 g whey protein (Elite 100% Whey, Dymatize Enterprises, LLC, Dallas, Tex. USA).

[4] = 3 g/d Calcium-HMB without intermittent fasting + RT, cited from earlier work
[5] = ITT analysis, Cohen's d baseline vs week 8
[6] = PP analysis, Cohen's d baseline vs week 8

CC(C)(O)CC(=O)O [TRFHMB, β-hydroxy-β-methylbutyrate]
1RMBP (kg) Week 4 ([1]; ITT analysis): 42.3 ± 2.4 kg
1RMBP (kg) Week 8 ([1]; ITT analysis): 47.3 ± 2.5 kg
1RMLP (kg) Week 8 ([1]; ITT analysis): 205.2 ± 15.0 kg
1RMLP ES (d) [1, 5]: 1.65
RTFBP ES (d) [1, 5]: 1.91
RTFLP ES (d) [1, 5]: 1.52
1RMBP Δ (%) ([1]; ITT analysis): 21%
1RMLP Δ (%) ([1]; ITT analysis): 57%
RTFBP Δ (%) ([1]; ITT analysis): 68%
RTFLP Δ (%) ([1]; ITT analysis): 145%
RTFBP (reps) Week 4 ([1]; ITT analysis): 20.0 ± 1.6 reps
RTFBP (reps) Week 8 ([1]; ITT analysis): 24.9 ± 1.8 reps
RTFLP (reps) Week 8 ([1]; ITT analysis): 38.0 ± 5.4 reps
1RMBP (kg) Δ ([1]; ITT analysis): 8 kg
1RMLP (kg) Δ ([1]; ITT analysis): 75 kg
RTFBP (reps) Δ ([1]; ITT analysis): 10 reps
RTFLP (reps) Δ ([1]; ITT analysis): 23 reps
Average ES for muscular endurance (RTFLP and RTFBP) ([1]; PP analysis only, vs 2.3 in CD): 1.5
1RMBP (kg) Week 4 ([1]; PP analysis): 43 ± 4 kg
1RMBP (kg) Week 8 ([1]; PP analysis): 48 ± 4 kg
1RMLP (kg) Week 8 ([1]; PP analysis): 220 ± 19 kg
1RMBP ES (d) [1, 6]: 0.76
1RMLP ES (d) [1, 6]: 1.80
RTFBP ES (d) [1, 6]: 1.86
RTFLP ES (d) [1, 6]: 1.27
1RMBP Δ (%) ([1]; PP analysis): 20%
1RMLP Δ (%) ([1]; PP analysis): 51%
RTFBP Δ (%) ([1]; PP analysis): 79%
RTFLP Δ (%) ([1]; PP analysis): 94%
RTFBP (reps) Week 4 ([1]; PP analysis): 20 ± 2 reps
RTFBP (reps) Week 8 ([1]; PP analysis): 25 ± 3 reps
RTFLP (reps) Week 8 ([1]; PP analysis): 31 ± 6 reps
1RMBP (kg) Δ ([1]; PP analysis): 8 kg
1RMLP (kg) Δ ([1]; PP analysis): 74 kg
RTFBP (reps) Δ ([1]; PP analysis): 11 reps
RTFLP (reps) Δ ([1]; PP analysis): 15 reps
RMR ([2]; ITT, Baseline): 1466 ± 48 kcal/day
RQ ([2]; ITT, Baseline): 0.82 ± 0.02 au
RMR ([2]; ITT, W 8): 1481 ± 44 kcal/day
RMR Δ ([2]; ITT): 15 kcal/day
RMR Δ (%) ([2]; ITT): 1%
RQ Δ ([2]; ITT): −0.03 au
RQ Δ (%) ([2]; ITT): −4%
RMR ES (d) ([2]; ITT): 0.09
RQ ES (d) ([2]; ITT): −0.42
RMR ([2]; PP, Baseline): 1472 ± 61 kcal/day
RQ ([2]; PP, Baseline): 0.81 ± 0.03 au
RMR ([2]; PP, W 8): 1519 ± 57 kcal/day
RQ ([2]; PP, W 8): 0.78 ± 0.02 au
RMR Δ ([2]; PP): 47 kcal/day
RMR Δ (%) ([2]; PP): 3%
RQ Δ ([2]; PP): −0.03 au
RQ Δ (%) ([2]; PP): −4%
RMR ES (d) ([2]; PP): 0.30
RQ ES (d) ([2]; PP): −0.44
Resting metabolic rate change ([2]; versus baseline): +47 kcal/d
Resting metabolic rate change (%) ([2]; versus baseline): 3%
LB Volume ([3]; ITT, First 4 weeks): 50374 ± 4107 kg
LS Session Volume ([3]; ITT, First 4 weeks): 8734 ± 659 kg
UB Session Volume ([3]; ITT, First 4 weeks): 2722 ± 210 kg
UB Volume ([3]; ITT, First 4 weeks): 15715 ± 1317 kg
LB Volume ([3]; ITT, Second 4 weeks): 56873 ± 4655 kg
LS Session Volume ([3]; ITT, Second 4 weeks): 10978 ± 902 kg
UB Session Volume ([3]; ITT, Second 4 weeks): 3336 ± 215 kg
UB Volume ([3]; ITT, Second 4 weeks): 17437 ± 1298 kg
LB Volume ES (d) ([3]; ITT): 0.41
LS Session Volume ES (d) ([3]; ITT): 0.79
UB Session Volume ES (d) ([3]; ITT): 0.80
UB Volume ES (d) ([3]; ITT): 0.37
LB Volume Δ ([3]; ITT): 6499 kg
LB Volume Δ (%) ([3]; ITT): 13%
LS Session Volume Δ ([3]; ITT): 2244 kg
LS Session Volume Δ (%) ([3]; ITT): 26%
UB Session Volume Δ ([3]; ITT): 614 kg
UB Session Volume Δ (%) ([3]; ITT): 23%
UB Volume Δ ([3]; ITT): 1722 kg
UB Volume Δ (%) ([3]; ITT): 11%
LB Volume ([3]; PP, First 4 weeks): 54729 ± 5724 kg
LS Session Volume ([3]; PP, First 4 weeks): 9434 ± 944 kg
UB Session Volume ([3]; PP, First 4 weeks): 2869 ± 303 kg
UB Volume ([3]; PP, First 4 weeks): 16696 ± 1851 kg
LB Volume ([3]; PP, Second 4 weeks): 60345 ± 6263 kg
LS Session Volume ([3]; PP, Second 4 weeks): 11915 ± 1281 kg
UB Session Volume ([3]; PP, Second 4 weeks): 3463 ± 297 kg
UB Volume ([3]; PP, Second 4 weeks): 17923 ± 1749 kg
LB Volume ES (d) ([3]; PP): 0.34
LS Session Volume ES (d) ([3]; PP): 0.83
UB Session Volume ES (d) ([3]; PP): 0.75
UB Volume ES (d) ([3]; PP): 0.26
LB Volume Δ ([3]; PP): 5616 kg
LB Volume Δ (%) ([3]; PP): 10%
LS Session Volume Δ ([3]; PP): 2481 kg
LS Session Volume Δ (%) ([3]; PP): 26%
UB Session Volume Δ ([3]; PP): 594 kg
UB Session Volume Δ (%) ([3]; PP): 21%
UB Volume Δ ([3]; PP): 1227 kg
UB Volume Δ (%) ([3]; PP): 7%
BF % after 4 weeks ([4]; females n=18, from 23.7±1.1, nonsignificant): 23.0±1.2%
BF % 4-week Δ-change [4]: −0.7%
